Assay results reported in patent US12486276B2, “5-(2,5-difluorophenyl)pyrrolidin-1-yl)-3-(1H-pyrazol-1-yl)pyrazolo[1,5-a]pyrimidine derivatives and related compounds as Trk kinase inhibitors for treating cancer” (Pyramid Biosciences, Inc., priority 2017, dated 2025).

target: T1, TrkA kinase domain (Homo sapiens, UniProt P04629); experiment: TrkA Kinase Assay (Trk kinase biochemical assay); conditions: 33 pM TrkA, 100 nM peptide substrate, 10 µM ATP; 15 minute preincubation; read-out: TrkA WT IC50
T1 construct: TrkA kinase domain was supplied by SignalChem; purchased SignalChem
Protocol: Example 33: TrkA Kinase Assay Protocol
TrkA kinase domain was supplied by SignalChem. Ulight PolyGT peptide substrate and Europium labeled W1024 antiphosphotyrosine antibody were supplied by Perkin Elmer. Assay buffer contained 50 mM HEPES, 10 mM MgCb, 1 mM EGTA, 2 mM DTT, 0.1 mg/mL BSA, and 0.005% w/v tween 20, pH 7.5. Enzyme dilution buffer was made by supplementing assay buffer with 25% w/v glycerol. Antibody dilution buffer contained 20 mM Tris, 137 mM NaCl, and 0.05% w/v tween 20, pH 8.0. Buffers were prepared at room temperature. Enzyme solutions were made on ice, while other solutions were made at room temperature and all subsequent assay steps were performed at room temperature. The TrkA stock solution (0.1 mg/mL) was diluted 156× in enzyme dilution buffer and then 100× in assay buffer. Five pL/well of enzyme solution was added to the assay plate (Greiner black 384-well nonbinding plate), with buffer containing no enzyme added to negative control wells. Test compounds were serially diluted in DMSO at 300× final assay concentration. One μL of each test compound dilution was mixed with 99 pL assay buffer plus ATP (30 μM) and five pL of each test compound-ATP solution was added to w¾13s containing enzyme. Positive control wells contained enzyme and substrates but no test compounds. After a 15 minute enzyme-test compound preincubation, five pL of substrate diluted in assay buffer was added to all wells. Final assay concentrations were 33 pM TrkA, 100 nM peptide substrate, and […]. After a five minute reaction, five pL of 80 mM EDTA was added, followed five minutes later by five pL two nM antibody solution. The ratio of fluorescence at 665 nm vs. 615 nM in each well was determined using a Tecan Infinite Pro F200 plate reader. For each test compound well, percent inhibition w % s calculated (% inliib. =100-100*(test value-neg. control)/(pos. control-neg. control)). Percent inhibition values were fit to a four parameter logistic to determine ICso values for each test compound.

T1 sequence (P04629 510-781 limits assumed): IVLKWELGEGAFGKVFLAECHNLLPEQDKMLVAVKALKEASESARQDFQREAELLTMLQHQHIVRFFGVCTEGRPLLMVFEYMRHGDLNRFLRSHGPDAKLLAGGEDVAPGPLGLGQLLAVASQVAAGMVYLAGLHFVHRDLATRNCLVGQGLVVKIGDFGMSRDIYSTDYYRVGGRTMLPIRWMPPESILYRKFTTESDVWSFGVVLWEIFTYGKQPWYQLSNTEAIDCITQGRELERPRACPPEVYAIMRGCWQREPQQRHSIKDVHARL

IC50, < 0.01 µM:
Cc1cnn(-c2cnn3ccc(N4CCC[C@@H]4c4cc(F)ccc4F)nc23)c1 [I-148]
Cc1cn(-c2cnn3ccc(N4CCC[C@@H]4c4cc(F)ccc4F)nc23)nc1C [I-150]
Fc1ccc(F)c([C@H]2CCCN2c2ccn3ncc(-n4cncn4)c3n2)c1 [I-168]
COc1ccncc1-c1cnn(-c2cnn3ccc(N4CCC[C@@H]4c4cc(F)ccc4F)nc23)c1 [I-201]
CC(C)(O)c1cnn(-c2cnn3ccc(N4CCC[C@@H]4c4cc(F)ccc4F)nc23)c1 [I-169]
Fc1ccc(F)c([C@H]2CCCN2c2ccn3ncc(-n4ncc5c4CCOC5)c3n2)c1 [I-184, (R)-1-(5-(2-(2,5-difluorophenyl)pyrrolidin-1-yl)pyrazolo[1,5-a]pyrimidin-3-yl)-1,4,6,7-tetrahydropyrano[4,3-c]pyrazole]
Cc1noc(C)c1-c1cnn(-c2cnn3ccc(N4CCC[C@@H]4c4cc(F)ccc4F)nc23)c1 [I-157, (R)-4-(1-(5-(2-(2,5-difluorophenyl)pyrrolidin˜yl)pyrazolo[,5-a]pyrimidin-3-yl)-1H-pyrazol-4-yl)-3,5-dimethylisoxazole]
Fc1ccc(F)c([C@H]2CCCN2c2ccn3ncc(-n4cc(-c5ccncc5)cn4)c3n2)n1 [I-207]
COc1ccc(-c2cnn(-c3cnn4ccc(N[C@H](C)c5cc(F)ccc5F)nc34)c2)cn1 [I-220, (R)—N-(1-(2,5-difluor®phenyl)ethyl)-3-(4-(6-methoxypyridin-3-yl)-1H-pyrazoI-1-yl)pyrazolo[1,5-a]pyrimidin-5-amine]
COc1ccc(-c2cnn(-c3cnn4ccc(N5CCC[C@@H]5c5nc(F)ccc5F)nc34)c2)cn1 [I-221, (R)-5-(2-(3,6-difluoropyridin-2-yl)pyrrolidin-1-yl)-3-(4-(6-methoxypyridin-3-yl)-1H-pyrazol-1-yl)pyrazolo[1,5-a]pyrimidine]
COc1cnn(-c2cnn3ccc(N4CCC[C@@H]4c4cc(F)ccc4F)nc23)c1 [I-172]
Cn1ccc(-c2cnn(-c3cnn4ccc(N5CCC[C@@H]5c5cc(F)ccc5F)nc34)c2)cc1=O [I-165]
OC1CCN(c2cnn(-c3cnn4ccc(N5CCC[C@@H]5c5cc(F)ccc5F)nc34)c2)C1 (stereo partly drawn) [I-208]
Cc1nnc(-c2cnn(-c3cnn4ccc(N5CCC[C@@H]5c5cc(F)ccc5F)nc34)c2)o1 [I-178, (R)-2-(1-(5-(2-(2,5-difluorophenyl)pyrrolidin-1-yl)pyrazolo[1,5-a]pyrimidin-3-yl)-1H-pyrazol-4-yl)-5-methyl-1,3,4-oxadiazole]
Cn1cc(-c2cnn(-c3cnn4ccc(N5CCC[C@@H]5c5cc(F)ccc5F)nc34)c2)cn1 [I-158]
Fc1ccc(F)c([C@H]2CCCN2c2ccn3ncc(-n4cc(OC5COC5)cn4)c3n2)c1 [I-179]
Cc1cnn(-c2cnn3ccc(N(C)[C@H](C)c4ccccc4)nc23)c1 [I-195, (R)—N-methyl-3-(4-methyl-1H-pyrazol-1-yl)-N-(1-phenylethyl)pyrazolo[1,5-a]pyrimidin-5-amine]
CN(C)C(=O)Nc1cnn(-c2cnn3ccc(N4CCC[C@@H]4c4cc(F)ccc4F)nc23)c1 [I-197]
COc1cncc(-c2cnn(-c3cnn4ccc(N5CCC[C@@H]5c5nc(F)ccc5F)nc34)c2)c1 [I-206, (R)-5-(2-(3,6-difluoropyridin-2-yl)pyrrolidin-t-yl)-3-(4-(5-methoxypyridin-3-yi)-1H-pyrazol-1-yl)pyrazolo[1,5-a]pyrimidine]
OCCc1cnn(-c2cnn3ccc(N4CCC[C@@H]4c4cc(F)ccc4F)nc23)c1 [I-156]
Fc1ccc(F)c([C@H]2CCCN2c2ccn3ncc(-n4cc(-c5ccncc5)cn4)c3n2)c1 [I-160]
O=C(c1cnn(-c2cnn3ccc(N4CCC[C@@H]4c4cc(F)ccc4F)nc23)c1)N1CCOCC1 [I-185, (R)-(1-(5-(2-(2,5-difluoropheiiyl)pyrrolidin-1-yl)pyrazolo[la]pyrimidin-3-yl)-1H-pyrazol-4-yl)(morpholino)methanone]
OCc1cnn(-c2cnn3ccc(N4CCC[C@@H]4c4cc(F)ccc4F)nc23)c1 [I-155]
COc1cnccc1-c1cnn(-c2cnn3ccc(N4CCC[C@@H]4c4cc(F)ccc4F)nc23)c1 [I-204]
Fc1ccc(F)c([C@H]2CCCN2c2ccn3ncc(-n4cc(-c5cn[nH]c5)cn4)c3n2)c1 [I-171]
N#Cc1cnn(-c2cnn3ccc(N4CCC[C@@H]4c4cc(F)ccc4F)nc23)c1 [I-170, (R)-1-(5-(2-(2,5-difluorophenyl)pyrrolidin-1-yl)pyrazolo[J5-a]pyrimidin-3-yl)-1H-pyrazole-4-carbonitrile]
Cc1nn(-c2cnn3ccc(N4CCC[C@@H]4c4cc(F)ccc4F)nc23)cc1-c1ccccc1 [I-151]
COc1ccc(F)c([C@H]2CCCN2c2ccn3ncc(-n4cc(C)cn4)c3n2)n1 [I-216, (R)-5-(2-(3-fluoro-6-methoxypyridin-2-yl)pyrrolidin-1-yl)-3-(4-methyl-1H-pyrazoI-1-yl)pyrazolo[1,5-a]pyrimidine]
Fc1ccc(F)c([C@H]2CCCN2c2ccn3ncc(-n4cccn4)c3n2)c1 [I-152, (R)-5-(2-(2,5-difluorophenyI)pyrroIidin-1-yl)-3-(1H-pyrazol-1-yl)pyrazolo[1,5-a]pyrimidine]
Cc1cnn(-c2cnn3ccc(N[C@H](C)c4ccccc4)nc23)c1 [I-196]
Cc1cnn(-c2cnn3ccc(N4CCC[C@@H]4c4nc(N(C)C)ccc4F)nc23)c1 [I-217, (R)-5-fluoro-N,N-dimethyl-6-(1-(3-(4-methyl-1H-pyrazol-1-yl)pyrazolo[1,5-a]pyrimidin-5-yl)pyrrolidin-2-yl)pyridin-2-amine]
Fc1ccc(F)c([C@H]2CCCN2c2ccn3ncc(-n4cc(-c5cccnc5F)cn4)c3n2)c1 [I-194]
Fc1ccc(F)c([C@H]2CCCN2c2ccn3ncc(-n4cc(-c5ccncc5F)cn4)c3n2)c1 [I-205]
Fc1ccc(F)c([C@H]2CCCN2c2ccn3ncc(-n4cc(-c5ccoc5)cn4)c3n2)c1 [I-189]
CP(C)(=O)c1cnn(-c2cnn3ccc(N4CCC[C@@H]4c4cc(F)ccc4F)nc23)c1 [I-174, (R)-(1-(5-(2-(2,5-difluorophenyl)pyrrolidm-1-yl)pyrazolo[1,5-a]pyrimidin-3-yl)-1H-pyrazol-4-yl)dimethylphosphine-oxide]
CN(C)S(=O)(=O)Nc1cnn(-c2cnn3ccc(N4CCC[C@@H]4c4cc(F)ccc4F)nc23)c1 [I-198, (R)—N-(1-(5-(2-(2,5-difluorophenyl)pyrrolidin-1-yl)pyrazolo[1,5-a]pyrimidin-3-yl)-1H-pyrazol-4-yl)-1,1-dimethylsulfonylurea]
Cc1ncc(-c2cnn(-c3cnn4ccc(N5CCC[C@@H]5c5cc(F)ccc5F)nc34)c2)s1 [I-164]
COc1cncc(-c2cnn(-c3cnn4ccc(N5CCC[C@@H]5c5ncccc5F)nc34)c2)c1 [I-211]
COc1ncccc1-c1cnn(-c2cnn3ccc(N4CCC[C@@H]4c4cc(F)ccc4F)nc23)c1 [I-202]
